Results from patent US20200222400A1, “METHODS FOR THE TREATMENT OF NEUROLOGICAL DISORDERS” (Yumanity Therapeutics, Inc., priority 2019, published 2020).

Experiments:
SCD = assay: Fatty acid saturation in guinea pig brain after oral SCD inhibitors (GC-FID of FAME); format: in vivo; conditions: oral 25 mg/kg twice daily 5 days, vs vehicle
Experimental: FIG. 19A-FIG. 19F are a series of graphs showing an evaluation of fatty acid saturation in guinea pig brain after oral administration of SCD inhibitors. Guinea pigs were dosed orally with SCD inhibitors twice daily (every 12 hours) for 5 days. Guinea pigs were dosed with vehicle, SCD5 Selective Inhibitor 1 (“SCD5-SI-1”), SCD5 Selective Inhibitor 2 (“SCD5-SI-2”), CAY10566 (“CAY”) or SCD1/SCD5 Inhibitor 1 (“SCD1/5-1”), all compounds at 25 mg/kg with a volume-matched vehicle control. Four hours after the last dose on day 5, guinea pigs were sacrificed, and brains were removed after whole-body saline perfusion. […] Samples were evaluated on a gas chromatograph with a flame ionization detector (GC-FID) to quantify a comprehensive panel of fatty acid species. Brain samples were evaluated for levels of 16 (FIG. 19A) and 18 (FIG. 19B) carbon-containing fatty acids (C16, C18 respectively), and the desaturation index (DI) was calculated by taking the ratio of desaturated to saturated fatty acid for each species. […] Brain samples were evaluated for the relative levels of the positional isomers of C16, including C16:1 n7 palmitoleic acid (FIG. 19C) or C16:1 n9 monounsaturated fatty acids (FIG. 19D). […] Data was analyzed by one-way ANOVA with Tukey's post-hoc test to account for multiple comparisons. ** p<0.01, *** p<0.005, **** p<0.0001. […]

[1] = tested on: human iPSC-derived neurons harboring the alpha-synuclein A53T mutation; assay: Neuron survival assay, iPSC-derived neurons harboring alpha-synuclein A53T mutation; format: cell-based; conditions: 100 nM and 30 nM, relative to DMSO in A53T neurons
Experimental: Human control and patient-derived trans-differentiated neurons were transfected with an RFP reporter driven by the human MAP2 promoter (MAP2-mApple) following the protocol for rat primary neurons as described above with the following exceptions: lipofection was carried out for approximately 1 h, and the final media replacement was with BrainPhys™ media supplemented with BDNF, GNDF, cAMP, ascorbic acid, and laminin.
Transfected neuronal cultures were imaged at 12-24 h intervals for the indicated number of days by robotic microscopy. Fluorescence images were acquired with a Nikon Eclipse Ti microscope equipped with a motorized stage, 20× extra-long working distance (ELWD) objective, and an Andor Zyla cMOS camera. During image acquisition, microplates were enclosed in an on-stage environmental chamber controlling temperature, CO2, and humidity (Okolab). Images were processed and analyzed with custom-made scripts in R and ImageJ software. The lifetimes of individual neurons were determined by tracking fluorescently-labeled neurons in ImageJ. Neuronal death was determined to occur upon incidence of RFP signal loss or rupture of cell body. Cox proportional hazards analysis was used to generate cumulative hazard plots and determine the risk of neuron death. Log-rank test was used to determine statistical significance of survival curve divergence between neuron cohorts.

SMILES: Cc1nnc(-c2ccc(N3CCC(Oc4cc(F)ccc4Cl)CC3)nn2)o1 [CAY10566]
- C16 desaturation index (DI), brain (SCD): decreased the C16 DI
- risk of neuron death [1]: significantly reduced
